According to BigSolDB 2.1:

C[C@@H]1O[C@@H]1P(=O)([O-])[O-].[Na+].[Na+]
solubility (mole fraction)
Details	283.15 K	288.15 K	293.15 K	298.15 K	303.15 K	308.15 K	313.15 K	318.15 K	323.15 K
in DMF	0.000606	0.000532	0.000481	0.000443	0.000396	0.000358	0.000339	0.000312	0.000291
in acetone	0.000186	0.00016	0.000138	0.000115	9.72e-05	8.3e-05	7.09e-05	6.07e-05	5.47e-05
in cyclohexane	0.000403	0.000353	0.0003	0.000252	0.000226	0.000196	0.000175	0.000151	0.000128
in ethanol	0.00109	0.000934	0.000769	0.000643	0.000548	0.000463	0.000383	0.000316	0.000266
in methanol	0.0177	0.0165	0.0152	0.0138	0.0129	0.0121	0.0111	0.0105	0.00984
in n-propanol	0.000108	8.01e-05	6.19e-05	4.52e-05	3.09e-05	1.95e-05	1.34e-05	1.04e-05	7.1e-06
